# Target: T1, Bromodomain-containing protein 9 (Homo sapiens, UniProt Q9H8M2)
# T1 sequence (Q9H8M2 whole entry): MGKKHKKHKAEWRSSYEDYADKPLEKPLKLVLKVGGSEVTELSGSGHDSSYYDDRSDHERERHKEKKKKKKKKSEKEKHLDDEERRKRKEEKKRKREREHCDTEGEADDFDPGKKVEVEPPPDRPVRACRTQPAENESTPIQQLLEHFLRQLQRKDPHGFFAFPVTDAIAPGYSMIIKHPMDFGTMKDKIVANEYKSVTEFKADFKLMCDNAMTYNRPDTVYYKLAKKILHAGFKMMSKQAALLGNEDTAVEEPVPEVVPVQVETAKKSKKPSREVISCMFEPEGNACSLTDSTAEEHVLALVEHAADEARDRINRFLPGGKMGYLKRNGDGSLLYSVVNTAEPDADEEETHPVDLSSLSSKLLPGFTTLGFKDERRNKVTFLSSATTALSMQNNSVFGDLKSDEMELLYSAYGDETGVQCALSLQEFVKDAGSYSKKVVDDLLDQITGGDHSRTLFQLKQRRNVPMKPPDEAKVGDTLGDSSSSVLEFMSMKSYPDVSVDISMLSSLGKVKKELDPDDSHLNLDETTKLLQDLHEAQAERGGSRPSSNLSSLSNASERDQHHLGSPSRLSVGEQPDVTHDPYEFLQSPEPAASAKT
# Experiment: Induction of degradation of BRD9 (unknown origin) assessed as protein degradation measured after 2 hrs by HiBit Lytic assay
row,DC50 [µM],Structure (SMILES)
1,< 0.1,COc1cc(-c2cn(C)c(=O)c(C)c2C)cc(Cl)c1CN1CCC(N2CCN(c3ccc(NC4CCC(=O)NC4=O)cc3F)CC2)C(F)(F)C1 (stereo unspecified)
2,< 0.1,COc1cc(-c2cn(C)c(=O)c(C)c2C)cc(OC)c1CN1CCN(C(=O)CC2CCN(c3ccc(NC4CCC(=O)NC4=O)cc3C(F)(F)F)CC2)CC12CC2 (stereo unspecified)
3,< 0.1,COc1cc(-c2cn(C)c(=O)c3[nH]ncc23)cc(OC)c1CN1CCC2(CC1)CN(C(=O)CN1CCC(c3ccc(NC4CCC(=O)NC4=O)cc3)CC1)C2 (stereo unspecified)
4,< 0.1,CC(c1ccc(-c2cn(C)c(=O)c3cc(F)ccc23)cc1OC(F)(F)F)N1CCC(C2CCN(c3ccc(NC4CCC(=O)NC4=O)cc3F)CC2)CC1 (stereo unspecified)
5,< 0.1,COc1cc(-c2cn(C)c(=O)c3[nH]ncc23)cc(OC)c1CN1CCc2c(CN3CCC(c4ccc(NC5CCC(=O)NC5=O)cc4)C(F)(F)C3)csc2C1 (stereo unspecified)
6,< 0.1,COc1cc(-c2cn(C)c(=O)c3cnccc23)c(Cl)cc1CN1CCC(N2CCN(c3ccc(NC4CCC(=O)NC4=O)cc3F)CC2)C(F)(F)C1 (stereo unspecified)

# — ChEMBL document CHEMBL5034044, “Novel Compounds for Targeted Degradation of BRD9 and Their Use for Treating Cancer” (ACS Med Chem Lett, 2022)
